Laboratory results taken from PubChem BioAssay (NCI).
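Grown in 96-well plates, cells were treated for 48 hours with each compound at five concentrations. Insufficient inhibition: endpoint recorded as highest concentration tested. Here, GI50 denotes the concentration required for 50% inhibition of growth. Definition used: TGI = concentration required for complete inhibition of growth.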

Columns and labels:
Assay in all cases: NCI tumour cell line growth inhibition, 48 h
[1] = tested on: PC-3 prostate
[2] = tested on: SN12C renal
[3] = tested on: MDA-MB-231 breast
[4] = tested on: LOX IMVI melanoma
[5] = tested on: SF-268 CNS
[6] = tested on: T-47D breast
[7] = tested on: SK-MEL-5 melanoma
[8] = tested on: SF-295 CNS
[9] = tested on: SF-539 CNS
[10] = tested on: HCC-2998 colon

SMILES	GI50 [1] [µM]	TGI [1] [µM]	GI50 [2] [µM]	TGI [2] [µM]	GI50 [3] [µM]	TGI [3] [µM]	GI50 [4] [µM]	TGI [4] [µM]	GI50 [5] [µM]	TGI [5] [µM]	GI50 [6] [µM]	TGI [6] [µM]	GI50 [7] [µM]	TGI [7] [µM]	GI50 [8] [µM]	TGI [8] [µM]	GI50 [9] [µM]	TGI [9] [µM]	TGI [10] [µM]	GI50 [10] [µM]
CCOC(=O)/C(C#N)=C/Nc1ccc(-c2nc3ccccc3[nH]2)cc1	29.8	> 100	19.5	55.6	18.1	45.1	19.4	41.5	19.2	47.4	33.9	> 100	28.5	> 100	27.4	76.8	21.5	40.9		
COc1cc([C@@H]2c3cc4c(cc3C[C@H]3COC(=O)[C@@H]32)OCO4)cc2c1OCO2				> 100		< 0.0224		> 68.2		> 100				< 0.01		< 0.01		< 0.01	< 0.01	
CCOC(=O)/N=c1/nc(N(C)C)ss1				> 100						> 100				> 100		> 100		> 100	> 100	
NS(=O)(=O)c1ccc(NC(=O)COC(=O)c2cccc3c(=O)c4ccccc4[nH]c23)cc1				90				43		36.9				> 100		52.6		32.7	> 100	
COc1ccc2c(c1)OCCC1=C2SCC2(C)CCN=C12 (stereo not drawn)				> 100				> 100		> 100				> 100		> 100		> 100		
C#Cc1cc2c(N)c(C(=O)c3cc(OC)c(OC)c(OC)c3)[nH]c2cc1OC	0.45	> 100	11.2	> 100	5.13	> 100	0.656	> 100	14.1	> 100	0.449	54.7	0.434	12.9			0.28	1.6	> 100	42.5
CC(=O)n1ccc2c(Cl)ncnc21				> 100				> 100		> 100				> 100		> 100		> 100	> 100	
COC(=O)C1C2CC3C(OC(=O)C31)C2OC(=O)[C@](OC)(c1ccccc1)C(F)(F)F (stereo partly drawn)				> 100				> 100		> 100				> 100				> 100	> 100	
CN(C)CC1CCCC/C1=N/OC(=O)c1ccc(Cl)c(Cl)c1 (stereo not drawn)				> 100				> 100		> 100				> 100		> 100		> 100	> 100	
N#C/C(=C\c1ccccc1Br)C(=O)c1ccccc1				> 76.6				28.3		> 85.4				34.6		> 87.5		> 100	> 100	
COC(=O)Cc1nc2ccccc2o1				> 100						> 100				> 100		> 100		> 100	> 100	
COc1ccc(C(=O)O/N=C2/CCC/C2=C\c2ccccc2)cc1				> 100				> 100		> 100				> 100		> 100		99.6	> 100	
